Measured values as given in patent US8686144B2, “Condensed pyridine derivatives useful as potent inhibitors of the protein kinase CK2” (Commissariat a l'Energie Atomique et aux Energie Alternative, priority 2009, dated 2014).
pIC50: −log10 of the molar value.

Assays:
topoisomerase IIα = molecular target: T1, topoisomerase IIα (Homo sapiens, UniProt P11388); assay: topoisomerase II activity assay (kinetoplast DNA, Vaxron TA-001); assay type: biochemical; conditions: 10 μM compound
T1 construct: purchased Vaxron TA-001
T1 sequence (P11388 whole entry): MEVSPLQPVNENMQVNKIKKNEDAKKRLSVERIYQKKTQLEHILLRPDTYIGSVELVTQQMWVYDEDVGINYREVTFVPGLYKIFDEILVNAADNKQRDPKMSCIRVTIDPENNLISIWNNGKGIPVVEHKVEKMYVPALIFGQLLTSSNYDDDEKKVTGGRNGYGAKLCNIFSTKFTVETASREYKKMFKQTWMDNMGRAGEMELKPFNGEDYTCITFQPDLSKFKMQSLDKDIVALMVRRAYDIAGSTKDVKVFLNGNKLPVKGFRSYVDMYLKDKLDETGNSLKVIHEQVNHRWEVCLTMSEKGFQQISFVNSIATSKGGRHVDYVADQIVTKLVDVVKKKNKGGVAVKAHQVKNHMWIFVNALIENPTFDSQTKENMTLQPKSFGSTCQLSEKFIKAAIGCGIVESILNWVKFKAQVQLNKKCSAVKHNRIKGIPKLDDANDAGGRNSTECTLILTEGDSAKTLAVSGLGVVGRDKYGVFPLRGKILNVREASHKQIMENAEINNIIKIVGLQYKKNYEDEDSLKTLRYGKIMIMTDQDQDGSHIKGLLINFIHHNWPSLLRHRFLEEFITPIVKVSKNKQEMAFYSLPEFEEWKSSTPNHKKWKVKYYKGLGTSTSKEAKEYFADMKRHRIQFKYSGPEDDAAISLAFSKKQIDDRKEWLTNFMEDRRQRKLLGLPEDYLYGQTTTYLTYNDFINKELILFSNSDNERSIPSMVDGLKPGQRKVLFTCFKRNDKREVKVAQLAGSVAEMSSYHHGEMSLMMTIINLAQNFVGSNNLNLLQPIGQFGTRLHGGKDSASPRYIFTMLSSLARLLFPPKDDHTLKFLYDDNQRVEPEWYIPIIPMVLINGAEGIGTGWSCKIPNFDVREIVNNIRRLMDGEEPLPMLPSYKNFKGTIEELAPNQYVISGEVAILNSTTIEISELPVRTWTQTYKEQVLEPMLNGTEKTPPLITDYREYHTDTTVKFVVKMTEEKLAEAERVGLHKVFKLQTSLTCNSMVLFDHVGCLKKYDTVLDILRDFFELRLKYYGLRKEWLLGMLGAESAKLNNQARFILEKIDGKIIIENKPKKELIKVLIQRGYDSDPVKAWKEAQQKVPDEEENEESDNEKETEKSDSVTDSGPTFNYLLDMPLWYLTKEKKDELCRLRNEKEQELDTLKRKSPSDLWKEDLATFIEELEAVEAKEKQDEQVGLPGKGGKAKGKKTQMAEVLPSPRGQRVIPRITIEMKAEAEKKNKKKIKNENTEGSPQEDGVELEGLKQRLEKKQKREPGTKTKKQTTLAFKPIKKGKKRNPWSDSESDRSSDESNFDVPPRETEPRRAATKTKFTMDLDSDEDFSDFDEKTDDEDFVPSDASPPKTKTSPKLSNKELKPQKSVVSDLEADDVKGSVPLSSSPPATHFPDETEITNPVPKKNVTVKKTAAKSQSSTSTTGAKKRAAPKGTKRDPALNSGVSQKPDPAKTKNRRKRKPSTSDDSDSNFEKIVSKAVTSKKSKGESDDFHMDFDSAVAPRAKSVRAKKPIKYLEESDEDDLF
Description: (§1) 1. Materials and Methods • Effect of compounds of formula (I) on CK2 activity is measured according to Prudent et al. (Prudent, R. et al. (2008) Mol Cell Biochem 316(1-2): 71-85): compounds were tested in a radioactive assay performed in a final volume of 18 μL containing 3 μL of compounds at the indicated concentrations, 3 μL, of CK2α (36 ng) and a mixture containing 100 μM of peptide substrate ([…], SEQ ID No: 1), 10 mM MgCl2, and 100 μM [γ-^32P]-ATP. Assays were performed at room temperature for 5 min before termination by the addition of 60 μL of 4% TCA. ^32P incorporation into the peptide substrate was determined as previously described in Filhol et al. (Biochemistry 29: 9928-36, 1990). • Effect of compounds of formula (I) on c-kit activity is measured according to the manufacturer's recommendations (Millipore, reference 14-559): in a final reaction volume of 25 μL, c-Kit (5-10 mU) is incubated with 8 mM MOPS pH 7.0, 0.2 mM EDTA, 10 mM MnCl2, 25 μM ATP, 0.1 mg/mL poly(Glu, Tyr) 4:1, 10 mM MgAcetate and [γ-33P-ATP] […] Following an incubation of 30 minutes at 37° C., reaction mixture is resolved on an agarose gel (1% agarose) and DNA topoisomers are quantified by densitometric analysis. • Effect of compounds of formula (I) on DNA intercalation. DNA intercalation was performed using FID (Fluorescence Intercalator Displacement). […] In this assay, compound auto-fluorescence was negative.

[1] = system: double stranded oligonucleotide CAATCGGATCGAATTCGATCCGATTG; assay: DNA intercalation by FID (Fluorescence Intercalator Displacement, thiazole orange); assay type: binding; conditions: 10 μM compound
Description: as §1

U373 cells [2] = assay: inhibition of U373 cell proliferation (CellTiter-Glo viability); assay type: cell-based, human; conditions: 5 μM, 48 hours treatment, FIG. 4
Description: (§2) 1. […] The following day, the culture medium was replaced with fresh medium (Dulbecco's medium, Invitrogen Life Technologies, Inc., supplemented with 10% (v/v) fetal calf serum (FBS, BioWest)), containing increasing concentration of inhibitors or an equivalent amount of DMSO as control. Two days later, cell viability was measured with the CellTiter-Glo® Luminescent Cell Viability Assay (Promega) according to the manufacturer recommendations. • The inhibition of U373 cells proliferation is assessed with the same protocol that HeLa cells: one day after plating, U373 cells are treated with 5 μM of Compound 1, Compound 2 or DMSO. Results are given relative to the luminescence recorded for DMSO.

CK2 = assay: cellular CK2 activity assay (YFP-based CK2 activity reporter in HeLa cells); assay type: cell-based, human; conditions: 24 hours incubation, FIGS. 2A and 2B
Description: Cellular CK2 activity assay: The plasmid pEYFPc1 expressing a chimeric YFP-based CK2 activity reporter was designed by adding six CK2 consensus phosphorylation sites at the C terminus of the YFP protein (pEYFPc1-SβS). pEYFPc1-SβS was obtained from pEYFPc1-CK2β after two subsequent rounds of mutations with the Quickchange-Site Directed mutagenesis kit (Stratagene) using for mutagenesis 1:
Then, the cells were collected and the washed pellets were solubilized for […] in ice with 100μΛ of lysis buffer (Tris 50 mM pH=7.4, 0.15 M NaCl, EDTA 2 mM, Triton X100 1/100, phosphatase inhibitor cocktail 2 (Sigma) 1/100, and leupeptine, aprotinine, AEBSF according to the manufacturer recommendations).

HeLa cells [3] = assay: inhibition of HeLa cell proliferation (CellTiter-Glo viability); assay type: cell-based, human; conditions: 48 hours treatment, FIG. 3
Description: as §2

c-Kit = molecular target: T2, c-Kit (Homo sapiens, UniProt P10721); assay: c-kit kinase activity assay (Millipore 14-559); assay type: biochemical; conditions: 10 μM compound
T2 construct: purchased Millipore 14-559
T2 sequence (P10721 26-976): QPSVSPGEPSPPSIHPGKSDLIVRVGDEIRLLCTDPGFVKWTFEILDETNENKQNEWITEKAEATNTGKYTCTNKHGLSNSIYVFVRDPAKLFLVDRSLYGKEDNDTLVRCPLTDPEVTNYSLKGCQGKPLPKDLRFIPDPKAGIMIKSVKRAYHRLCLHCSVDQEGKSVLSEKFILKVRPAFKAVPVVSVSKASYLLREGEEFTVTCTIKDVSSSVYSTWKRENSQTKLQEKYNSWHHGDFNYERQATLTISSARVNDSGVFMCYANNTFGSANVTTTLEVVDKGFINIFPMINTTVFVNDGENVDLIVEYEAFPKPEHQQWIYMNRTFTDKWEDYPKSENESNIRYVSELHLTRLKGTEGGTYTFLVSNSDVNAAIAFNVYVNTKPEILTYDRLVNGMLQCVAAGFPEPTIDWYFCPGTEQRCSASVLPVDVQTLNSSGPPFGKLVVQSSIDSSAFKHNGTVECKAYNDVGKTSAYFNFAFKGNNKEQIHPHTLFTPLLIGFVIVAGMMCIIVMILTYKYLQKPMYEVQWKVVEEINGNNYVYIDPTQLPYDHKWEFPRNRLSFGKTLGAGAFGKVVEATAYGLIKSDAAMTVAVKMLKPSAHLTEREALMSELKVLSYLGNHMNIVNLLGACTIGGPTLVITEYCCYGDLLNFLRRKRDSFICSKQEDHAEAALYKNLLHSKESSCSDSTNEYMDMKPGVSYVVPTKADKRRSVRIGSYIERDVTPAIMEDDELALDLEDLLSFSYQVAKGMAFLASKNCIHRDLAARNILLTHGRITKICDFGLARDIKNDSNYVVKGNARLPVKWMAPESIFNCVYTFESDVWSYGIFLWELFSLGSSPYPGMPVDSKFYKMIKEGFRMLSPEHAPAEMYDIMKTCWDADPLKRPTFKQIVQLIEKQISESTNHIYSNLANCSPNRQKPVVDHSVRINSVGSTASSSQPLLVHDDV
Description: as §1

U373 cells [4] = assay: cell cycle distribution analysis (propidium iodide), U373; assay type: cell-based, human; conditions: 5 μM, 24 hours
Description: (§3) Cells previously treated with Compound 1 and Compound 2 in example 4 are then submitted to a cell cycle analysis following propidium iodide incorportation.
(§4) Cell cycle distribution analysis: cells were plated in 6-well plates. The following day, cells were treated with 5 μM compounds or an equivalent amount of DMSO. After 24 hours, cells were harvested, fixed with ethanol 70% for 30 minutes, and labeled with propidium iodide 10 μg/mL for 30 min. DNA content was analysed with FACScalibur and Cell Quest software.

HeLa cells [5] = assay: cell cycle distribution analysis (propidium iodide), HeLa; assay type: cell-based, human; conditions: 5 μM, 24 hours
Description: as §3, §4

U373 cells [6] = assay: colony formation assay by soft agar culture; assay type: cell-based; conditions: Homo sapiens, U373 MG, 360 h, 15 days
Description: The effect of compound on tumor cell tumorigenesis is tested on a colony formation assay.
The inhibition of colony formation assay by soft agar culture is performed as follows: U373 cells were poured on a 0.6% agar-DMEM-10% FBS layer, imbedded in 0.3% agar-DMEM-10% FBS, containing compounds (5 μM) or equivalent amount of DMSO. Number of colonies (more than 20 cells) was counted 15 days later in 10 fields/well. Experiment was done in duplicate at least twice.

CK2α = CK2α (Homo sapiens, UniProt P68400); assay: CK2 radioactive kinase assay (32P incorporation into peptide substrate); assay type: biochemical; conditions: 100 μM ATP; for % remaining CK2 activity (10 μM): 10 μM compound
CK2α, sequence (P68400 whole entry): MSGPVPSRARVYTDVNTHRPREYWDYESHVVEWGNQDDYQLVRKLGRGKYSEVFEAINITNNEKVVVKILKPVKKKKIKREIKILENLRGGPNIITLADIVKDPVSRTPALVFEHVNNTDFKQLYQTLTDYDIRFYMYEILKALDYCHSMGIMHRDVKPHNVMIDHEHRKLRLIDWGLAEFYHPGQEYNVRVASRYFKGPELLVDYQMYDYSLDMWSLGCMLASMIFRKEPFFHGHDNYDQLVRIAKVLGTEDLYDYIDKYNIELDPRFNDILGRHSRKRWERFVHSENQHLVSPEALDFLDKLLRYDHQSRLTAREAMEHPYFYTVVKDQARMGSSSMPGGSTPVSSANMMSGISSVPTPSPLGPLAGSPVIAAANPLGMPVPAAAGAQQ
Description: 1. Materials and Methods • Effect of compounds of formula (I) on CK2 activity is measured according to Prudent et al. (Prudent, R. et al. (2008) Mol Cell Biochem 316(1-2): 71-85): compounds were tested in a radioactive assay performed in a final volume of 18 μL containing 3 μL of compounds at the indicated concentrations, 3 μL, of CK2α (36 ng) and a mixture containing 100 μM of peptide substrate ([…], SEQ ID No: 1), 10 mM MgCl2, and 100 μM [γ-^32P]-ATP. Assays were performed at room temperature for 5 min before termination by the addition of 60 μL of 4% TCA. ^32P incorporation into the peptide substrate was determined as previously described in Filhol et al. (Biochemistry 29: 9928-36, 1990). • Effect of compounds of formula (I) on c-kit activity is measured according to the manufacturer's recommendations (Millipore, reference 14-559): in a final reaction volume of 25 μL, c-Kit (5-10 mU) is incubated with 8 mM MOPS pH 7.0, 0.2 mM EDTA, 10 mM MnCl2, 25 μM ATP, 0.1 mg/mL poly(Glu, Tyr) 4:1, 10 mM MgAcetate and [γ-33P-ATP] (specific activity approx. 500 cpm/pmol, concentration as required). The reaction is initiated by the addition of the MgATP mix. After incubation for 40 minutes at room temperature, the reaction is stopped by the addition of 5 μL of a 3% phosphoric acid solution. 10 μL of the reaction is then spotted onto a Filtermat A and washed three times for 5 minutes in 75 mM phosphoric acid and once in methanol prior to drying and scintillation counting. • Effect of compounds of formula (I) on topoisomerase II activity is measured according to the manufacturer's recommendations (Vaxron, TA-001): in a final reaction volume of 10 μL, 1U topoisomerase IIα is incubated with 0.1M Tris-HCl, pH 8.0, 2 mM DTT, 20 mM MgCl2, 4 mM ATP, 0.2 M NaCl, 2 μg BSA, 500 ng Kinetoplast DNA and compounds to be assayed (from 10 mM stock solution in DMSO, final concentration of DMSO<1%). The reaction is initiated by the addition of topoisomerase IIα. After incubation for 15 min at 37° C., reaction is stopped by addition of 1 μL of stop solution (3% SDS, 1.5 mg·mL^−1 Proteinase K). Following an incubation of 30 minutes at 37° C., reaction mixture is resolved on an agarose gel (1% agarose) and DNA topoisomers are quantified by densitometric analysis. • Effect of compounds of formula (I) on DNA intercalation. DNA intercalation was performed using FID (Fluorescence Intercalator Displacement). This assay based on the loss of fluorescence of a DNA-bound intercalator (thiazole orange) upon displacement by a DNA-binding molecule. Briefly, the double stranded oligonucleotide […] […] After 20 minutes incubation, fluorescence is measured (excitation: 490 nm, emission: 520 nm). In this assay, compound auto-fluorescence was negative.

U373 cells [7] = assay: in vivo inhibition of tumour growth, U373 xenograft in athymic nude mice
Description: All experimental procedures adhered to local ethical committee (Comité régional d'éthique pour l'Expérimentation animale CREEA, Rhône Alpes—protocol n°286). Female Harlan athymic nude mice (6-8 weeks) were inoculated s.c. into the right flank with 7.5×10^5 U373 cells. When tumors reaches±50 mm^3 (volume=length×width×height), animals were treated i.p. 3 times weekly (every two days) for 2 weeks, with Compound 1 (0.14 mg/100 μL/injection-4 mice) dissolved in PEG3350 22.5%, BSA 0.45% or equivalent DMSO (10% final-3 mice) dissolved in same buffer (control group). Body weight and tumor volume were determined twice weekly. The experiment was terminated when tumor volume was about 1000 mm^3. Results are presented as mean±standard error of the mean (SEM).

| SMILES | % remaining topoisomerase II activity (10 μM) (topoisomerase IIα) [%] | % DNA intercalation (10 μM) [1] [%] | reduction of U373 cell proliferation (U373 cells [2]) | phosphorylated CK2 reporter isoform (CK2) | inhibition of HeLa cell proliferation (HeLa cells [3]) | % remaining c-kit activity (10 μM) (c-Kit) [%] | cell cycle effect (U373 cells [4]) | apoptotic cells (HeLa cells [5]) | cell cycle effect (HeLa cells [5]) | inhibition at 5 µM (U373 cells [6]) [%] | % remaining CK2 activity (10 μM) (CK2α) [%] | pIC50 (CK2α) | tumor size, times smaller than DMSO group (U373 cells [7]; 15 days post first compound injection, i.p. 0.14 mg/injection) [times] | tolerability (U373 cells [7]; at the doses applied) | variations in body weight (U373 cells [7]; i.p. 0.14 mg/injection, 3 times weekly for 2 weeks) | tumor incidence compared to DMSO (U373 cells [7]; i.p. 0.14 mg/injection, 3 times weekly for 2 weeks, all time points) |
| --- | --- | --- | --- | --- | --- | --- | --- | --- | --- | --- | --- | --- | --- | --- | --- | --- |
| Cc1cnc(Cl)c2c1[nH]c1c3ccc(O)cc3ccc12 [Compound 1] | 106.8 | 62.0 | potent to reduce cell proliferation | disappeared in a dose-dependent manner | strong inhibition of tumour cell proliferation even at low doses | 60.4 | cell cycle arrest with a substantial accumulation in G2/M-phase | concomitant increase of apoptotic cells | cell cycle arrest with a substantial accumulation in G2/M-phase | 50 | 1.4 | 5.82 | 4.7 | well tolerated | not statistically significant | significantly reduced |
| Cc1cnc(Cl)c2c1[nH]c1ccc3cc(O)ccc3c12 [Compound 2] | 77 | 66.4 | potent to reduce cell proliferation | disappeared in a dose-dependent manner | strong inhibition of tumour cell proliferation even at low doses | 16.9 | cell cycle arrest with a substantial accumulation in G2/M-phase | concomitant increase of apoptotic cells | cell cycle arrest with a substantial accumulation in G2/M-phase | – | 3.5 | 6.17 | – | – | – | – |
